Measurements taken from patent US20220370384A1, “COMBINATIONS OF MEK INHIBITORS WITH CAP-DEPENDENT ENDONUCLEASE INHIBITORS” (priority 2019, published 2022).

Key:
Assay type in all cases: cell-based, influenza virus
[1] = tested on: rgA/Victoria/3/75 (H3N2-WT)
[2] = tested on: rgA/Giessen/6/09 (H1N1-WT)
[3] = tested on: wild type (wt) strain of A/Mississippi/3/2001 (H1N1)

SMILES: O=C(O)c1ccc(F)c(F)c1Nc1ccc(I)cc1Cl [ATR002, 2-(2-chloro-4-iodophenylamino)-N-3,4-difluoro benzoic acid]
- antiviral activity [1]: revealed its potency against both variants
- activity lower (than BLXM) [2]: 13%

SMILES: COC(=O)OCOc1c2n(ccc1=O)N([C@@H]1c3ccccc3SCc3c1ccc(F)c3F)[C@@H]1COCCN1C2=O [BLXM]
- reduction of the viral titer [2]: approximate complete reduction of the viral titer

SMILES: O=C(NOCC1CC1)c1ccc(F)c(F)c1Nc1ccc(I)cc1Cl [CI-1040]
- antiviral effectiveness [3]: very effective

SMILES: CCOC(=O)C1=C[C@@H](OC(CC)CC)[C@H](NC(C)=O)[C@@H](N)C1 [oseltamivir]
- antiviral effectiveness [3]: very effective
